# Structures can show the parent of a compound that is named as a salt.
# Molecular target: T1, KRAS G12D (Homo sapiens, UniProt P01116, G12D)
# T1 construct: host or cells: AsPC-1 human pancreatic cancer cells
# Test: Test Example 1-1: KRAS degradation action in AsPC-1, sandwich ELISA
# Type: cell-based
# Details: AsPC-1 cells, 24 hours treatment, corrected with β-actin, 0% = 10 μM Example No. 7
# Description: Test Example 1-1: Evaluation of KRAS Degradation Action on Human G12D Mutant KRAS-Positive Pancreatic Cancer Line AsPC-1
# The KRAS degradation action of test compounds was evaluated by measuring the expression levels of KRAS G12D by a sandwich ELISA method.
# AsPC-1 cells (ATCC, CRL-1682) were seeded at 90 μL per well on a 96-well plate (from IWAKI) to give 1.8×10^4 cells per well. As for the cell culture conditions, RPMI 1640 medium (from Merck) containing 10% fetal bovine serum (from Cytiva) was used in the presence of 5% CO2 at 37° C.
# The next day, the test compounds (10 points having final concentrations in the range of 10 μM to 0.3 nM) were diluted 100-fold with a fresh medium and were added at 10 μL per well. The same treatments were each applied to 4 wells. In addition, in production of the sandwich ELISA plate, a capture antibody (anti-KRAS antibody, from LS Bio) mixed in Phosphate Buffered Saline [PBS; from FUJIFILM Wako Pure Chemical Corporation] in 1,000-fold dilution was added at 20 μL per well to a Maxisorp 384-well plate (from Thermo Scientific), and after attaching a seal, the plate was allowed to stand at 4° C. overnight.
# After 24 hours of the test compound treatment, the culture supernatant was discarded. Immediately, a cytolytic solution (produced by adding, to a RIPA buffer [from Thermo Scientific], a Halt Protease Phosphatese Inhibitor Cocktail [from Thermo Scientific] and Benzonase Nuclease [from Merck] in amounts of 1/100 and 1/500, respectively) was added at 50 μL per well, and the cells were lysed. Then, equally treated 4 wells were combined to prepare a cell lysate sample of 200 μL in total. For KRAS detection, the Maxisorp 384-well plate which had been treated with the capture antibody since the previous day was washed (twice with 25 μL each) with 0.05% Tween-20-containing PBS (from Thermo Scientific; 20×PBS Tween-20 was diluted 20-fold with ion exchange water and used) and was treated with a blocking solution (Intercept Blocking Buffer; from LI-COR Biosciences) for 60 minutes, and then, the cell lysate samples were added at 20 μL per well. For 3-actin detection, the cell lysate samples were added as they were at 20 μL per well to the Maxisorp 384-well plate, and after attaching a seal, the plate was allowed to stand at 4° C. overnight.
# The next day, after washing the KRAS detection plate with 0.05% Tween-20-containing PBS, an anti-Ras (G12D mutant specific) antibody (from Cell Signaling Technology) diluted 1,000-fold with a blocking solution was added at 20 μL per well as a detection antibody, and the plate was allowed to stand for 5 hours at room temperature. Then, the plate was centrifuged to remove the supernatant (using a centrifugal dehydrator machine, the supernatant was removed by the same method hereinafter) and was washed with 0.05% Tween-20-containing PBS. Then, an anti-Rabbit IgG […] antibody (from Cell Signaling Technology) diluted 1,000-fold with a blocking solution was added at 20 μL per well as a secondary antibody, and the plate was allowed to stand for 1 hour at room temperature. The plate was centrifuged to remove the supernatant and was washed with 0.05% Tween-20-containing PBS. Then, a BM chemiluminescent ELISA substrate (from Merck) was added at 20 μL per well, and the amounts of luminescence were measured with 2103 EnVision (from PerkinElmer). In addition, the 3-actin detection plate was washed with 0.05% Tween-20-containing PBS and was treated with a blocking solution for 60 minutes, and then, an anti-β-actin antibody (from Abcam) diluted 1,000-fold with a blocking solution was added at 20 μL per well as a detection antibody. The plate was allowed to stand for 5 hours at room temperature. Then, the plate was centrifuged to remove the supernatant and washed with 0.05% Tween-20-containing PBS, and then, an anti-Mouse IgG RP-linked antibody (from Cell Signaling Technology) diluted 1,000-fold with a blocking solution was added at 20 μL per well as a secondary antibody. […]
# T1 sequence (P01116 1-188 isoform P01116-2 G12D): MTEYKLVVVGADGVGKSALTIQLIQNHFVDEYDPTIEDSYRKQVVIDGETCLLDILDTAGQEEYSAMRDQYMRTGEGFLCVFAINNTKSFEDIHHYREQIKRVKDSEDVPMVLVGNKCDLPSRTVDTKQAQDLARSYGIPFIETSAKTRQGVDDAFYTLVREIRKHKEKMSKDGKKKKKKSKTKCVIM
row,SMILES,DC50
1,"Cc1ncsc1-c1ccc([C@H](CO)NC(=O)[C@@H]2C[C@@H](O)CN2C(=O)[C@H](C(C)C)n2cc(-c3ccc(COc4c(-c5c(C)c(F)cc6[nH]ncc56)c(C5CC5)cc5c(N6C[C@@H]7C[C@H]6CN7)nc(OC6CCOCC6)nc45)cc3)nn2)cc1 [Example 8, (4R)-1-[(2S)-2-(4-{4-[({6-cyclopropyl-4-[(1S,4S)-2,5-diazabicyclo[2.2.1]heptan-2-yl]-7-(6-fluoro-5-methyl-1H-indazol-4-yl)-2-[(oxan-4-yl)oxy]quinazolin-8-yl}oxy)methyl]phenyl}-1H-1,2,3-triazol-1-yl)-3-methylbutanoyl]-4-hydroxy-N-{(1R)-2-hydroxy-1-[4-(4-methyl-1,3-thiazol-5-yl)phenyl]ethyl}-L-prolinamide]",37 nM
2,CCOc1nc(N2C[C@@H]3C[C@H]2CN3)c2cc(C3CC3)c(-c3c(C)c(F)cc4[nH]ncc34)c(OCc3ccc(C(=O)N[C@H](C(=O)N4C[C@H](O)C[C@H]4C(=O)N[C@@H](CO)c4ccc(-c5scnc5C)cc4)C(C)C)cc3)c2n1 [Example 5],153 nM
3,"Cc1c(F)cc2[nH]ncc2c1-c1c(C2CC2)cc2c(N3C[C@@H]4C[C@H]3CN4)nc(OC3CCOCC3)nc2c1OCc1ccc(-c2cn([C@H](C(=O)N3C[C@H](O)C[C@H]3C(=O)N[C@@H](CO)c3ccc(-c4scnc4CO)cc3)C(C)C)nn2)cc1 [Example 18, (4R)-1-[(2S)-2-(4-{4-[({6-cyclopropyl-4-[(1S,4S)-2,5-diazabicyclo[2.2.1]heptan-2-yl]-7-(6-fluoro-5-methyl-1H-indazol-4-yl)-2-[(oxan-4-yl)oxy]quinazolin-8-yl}oxy)methyl]phenyl}-1H-1,2,3-triazol-1-yl)-3-methylbutanoyl]-4-hydroxy-N-[(1R)-2-hydroxy-1-{4-[4-(hydroxymethyl)-1,3-thiazol-5-yl]phenyl}ethyl]-L-prolinamide n hydrochloride]",74 nM
4,"Cc1c(F)cc2[nH]ncc2c1-c1c(C2CC2)cc2c(N3C[C@@H]4C[C@H]3CN4)nc(OC3CCOCC3)nc2c1OCc1ccc(-c2cn([C@H](C(=O)N3C[C@H](O)C[C@H]3C(=O)N[C@@H](CO)c3ccccc3)C(C)C)nn2)cc1 (atropisomer, axis not shown) [Example 14]",221 nM
5,Cc1c(F)cc2[nH]ncc2c1-c1c(C2CC2)cc2c(N3C[C@@H]4C[C@H]3CN4)nc(OC3CCOCC3)nc2c1OCc1ccc(-c2cn([C@H](C(=O)N3C[C@H](O)C[C@H]3C(=O)N[C@@H](CO)c3ccc(-c4ccnn4C)cc3)C(C)C)nn2)cc1 [Example 23],34 nM
6,Cc1ncsc1-c1ccc(C2(NC(=O)[C@@H]3C[C@@H](O)CN3C(=O)[C@H](C(C)C)n3cc(-c4ccc(COc5c(-c6c(C)c(F)cc7[nH]ncc67)c(C6CC6)cc6c(N7C[C@@H]8C[C@H]7CN8)nc(OC7CCOCC7)nc56)cc4)nn3)CC2)cc1 [Example 6],103 nM
7,Cc1ncsc1-c1ccc([C@H](CO)NC(=O)[C@@H]2C[C@@H](O)CN2C(=O)[C@H](C(C)C)n2cc(-c3ccc(COc4c(-c5c(C)c(F)cc6[nH]ncc56)c(C5CC5)cc5c(N6C[C@@H]7C[C@H]6CN7)nc(OC6COC6)nc45)cc3)nn2)cc1 [Example 27],55 nM
8,Cc1ncsc1-c1ccc(C2(NC(=O)[C@@H]3C[C@@H](O)CN3C(=O)[C@@H](NC(=O)c3ccc(COc4c(-c5c(C)c(F)cc6[nH]ncc56)c(C5CC5)cc5c(N6C[C@@H]7C[C@H]6CN7)nc(OC6CCOCC6)nc45)cc3)C(C)C)CC2)cc1 [Example 1],123 nM

# Source: patent US20250340561A1, “QUINAZOLINE COMPOUND FOR INDUCING DEGRADATION OF G12D MUTANT KRAS PROTEIN” (Astellas Pharma Inc., priority 2021, published 2025)
